Calls of active or inactive are those of the source. The rule behind the calls is not given here.
Assays:
[1] = target: T1, Histidine decarboxylase (Rattus norvegicus) (UniProt P16453); assay: Inhibition of histidine decarboxylase in Sprague-Dawley rat stomach using L-histidine-carboxyl-[14C] as substrate at 1 X 10^-4 M after 30 mins by scintillation counting analysis
T1 sequence (whole entry): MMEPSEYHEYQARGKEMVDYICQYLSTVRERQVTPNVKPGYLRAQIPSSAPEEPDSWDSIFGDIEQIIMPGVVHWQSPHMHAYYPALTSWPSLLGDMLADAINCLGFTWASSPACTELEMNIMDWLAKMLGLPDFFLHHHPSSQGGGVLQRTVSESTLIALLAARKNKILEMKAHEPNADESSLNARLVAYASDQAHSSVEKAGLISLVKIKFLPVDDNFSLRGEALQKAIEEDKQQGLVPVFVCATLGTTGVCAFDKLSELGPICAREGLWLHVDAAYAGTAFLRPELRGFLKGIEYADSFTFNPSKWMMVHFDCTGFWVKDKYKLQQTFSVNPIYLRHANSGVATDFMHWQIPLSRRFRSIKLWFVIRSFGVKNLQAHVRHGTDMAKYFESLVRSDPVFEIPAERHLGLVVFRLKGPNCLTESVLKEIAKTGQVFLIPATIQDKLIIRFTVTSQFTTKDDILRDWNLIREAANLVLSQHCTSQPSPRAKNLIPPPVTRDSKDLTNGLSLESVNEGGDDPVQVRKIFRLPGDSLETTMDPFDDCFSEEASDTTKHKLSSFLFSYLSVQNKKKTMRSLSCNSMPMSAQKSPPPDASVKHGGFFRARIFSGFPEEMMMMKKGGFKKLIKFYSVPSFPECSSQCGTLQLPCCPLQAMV

[2] = target: T1, Histidine decarboxylase (Rattus norvegicus); assay: Inhibition of histidine decarboxylase in Sprague-Dawley rat stomach using L-histidine-carboxyl-[14C] as substrate at 4 X 10^-6 M after 30 mins by scintillation counting analysis relative to control

Structure (SMILES) | inhibition [1] | inhibition [2] [%]
CCC(c1c[nH]cn1)C(N)C(=O)OC (mixture of isomers) | inactive | 50
COC(=O)C(N)C(C)c1c[nH]cn1 (mixture of isomers) | inactive | 50

Second part, the compound after the results:

inhibition [1] | inhibition [2] [%] | Structure (SMILES)
inactive | – | CC(c1c[nH]cn1)C(N)C(=O)O (configuration not stated)
inactive | – | CCC(c1c[nH]cn1)C(N)C(=O)O (mixture of isomers)
inactive | – | CCCCCCC(c1c[nH]cn1)C(N)C(=O)O (mixture of isomers)
